This is an account of results in ChEMBL document CHEMBL5352457, “Discovery of orally active 1,4,5,6,8-pentaazaacenaphthylens as novel, selective, and potent covalent BTK inhibitors for the treatment of rheumatoid arthritis” (Eur J Med Chem, 2023).

Data set [1] can be described thus: in vivo. As to conditions: Sprague-Dawley, rat, po, 10 mg/kg.
The nature of data set [2]: in vivo. The conditions noted are these: Sprague-Dawley, rat, po, 10 mg/kg. The source holds these as a separate data set.
Data set [3] is described as follows: physchem. The conditions noted are these: buffer, pH 7.4.
Data set [4] in a line: in vivo. As to conditions: Sprague-Dawley, rat, po, 10 mg/kg. The source holds these as a separate data set.
A short description of data set [5]: in vivo. The conditions noted are these: Sprague-Dawley, rat, plasma, po, 10 mg/kg.
Data set [6] is described as follows: in vivo. The conditions noted are these: Sprague-Dawley, rat, iv, 1 mg/kg.
Data set [7] can be described thus: in vivo. The conditions noted are these: Sprague-Dawley, rat, po, 10 mg/kg. This is another data set of the same source.
The nature of data set [8]: in vivo. The conditions noted are these: Sprague-Dawley, rat, iv, 1 mg/kg. The source holds these as a separate data set.
The nature of data set [9]: in vivo. As to conditions: Sprague-Dawley, rat, iv, 1 mg/kg. This is another data set of the same source.
Data set [10] in a line: physchem. As to conditions: buffer, pH 7.

Each structure is given as a SMILES string. In brackets after ≈: the same amount, converted by molar mass.

One may read the bioavailability as the share of a dose that reaches the circulation, judged against a reference dose that is usually intravenous. A low value points to poor availability. A word on the Cmax: it is the highest concentration seen after dosing. What is called fraction remaining is what is left of the initial amount, in per cent. In general, Tmax refers to the time at which the peak concentration occurs. By Vd is commonly meant the apparent volume that relates the amount in the body to the concentration in plasma or blood. One may read the AUC as the area under the concentration-time curve, a measure of exposure. A higher AUC goes with more exposure. What is called clearance is a measure of how efficiently the substance is removed, as volume per time. A word on the solubility: it is the dissolved amount per volume that the medium holds. Read a low solubility as little dissolved substance. `C=CC(=O)N1CC[C@@H](N2N=C(Nc3ccc(Oc4ccccc4)cc3)c3c[nH]c4ncnc2c34)C1` gave a bioavailability at 24 h in data set [1] of 3.6%. This compound displayed a maximum concentration (Cmax) at 24 h in [2] of 52.5 ng/mL. This compound showed a fraction remaining at 24 h in data set [3] of 80.2%. Besides, in data set [4], the Tmax at 24 h stood at 1 h. Further, the concentration at 1 h in [5] turned out to be 125 nM. The Vd at 24 h in data set [6] was 1.67 L/kg. Further, the AUC at 24 h is 164 ng·h/mL in [7] and 454 ng·h/mL in data set [8]. In data set [9], this compound showed a clearance at 24 h of 36.8 mL/min/kg. This compound also yielded a solubility in data set [10] of 174 µM (≈ 81 µg/mL).
